In PubChem BioAssay AID2060882 (Molecular Pharmacology Branch, DTP, NCI, 2025):

Tested on: 898857-211-R-J1-PDC complex spheroids, growth % test/control
Experiment: Anticancer human tumor 898857-211-R-J1-PDC patient-derived melanoma cell line growth inhibition [RAS]
Settings: for IC50: curve of first compound; for viability, T/C: stronger effect = lower value; active = viability on the fitted dose curve at most 10% of control; inactive = the rest
How it was run: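 Multi-cell-type spheroids: tumor cells plus HUVEC endothelial cells and mesenchymal stem cells. RAS-pathway inhibitors were combined with targeted agents, each dosed in half-log steps down from clinical Cmax, or from 10 microM when Cmax was unknown.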

[1] = second compound 0.000949 µM, first compound 0.0316 µM
[2] = second compound 0.000949 µM, first compound 0.1 µM
[3] = second compound 0.000949 µM, first compound 0.316 µM
[4] = second compound 0.000949 µM, first compound 1 µM
[5] = second compound 0.003 µM, first compound 0.0316 µM
[6] = second compound 0.003 µM, first compound 0.1 µM
[7] = second compound 0.003 µM, first compound 0.316 µM
[8] = second compound 0.003 µM, first compound 1 µM
[9] = second compound 0.00949 µM, first compound 0.0316 µM
[10] = second compound 0.00949 µM, first compound 0.1 µM
[11] = second compound 0.00949 µM, first compound 0.316 µM
[12] = second compound 0.00949 µM, first compound 1 µM
[13] = second compound 0.03 µM, first compound 0.0316 µM
[14] = second compound 0.03 µM, first compound 0.1 µM
[15] = second compound 0.03 µM, first compound 0.316 µM
[16] = second compound 0.03 µM, first compound 1 µM
[17] = second compound 0.0949 µM, first compound 0.0316 µM
[18] = second compound 0.0949 µM, first compound 0.1 µM
[19] = second compound 0.0949 µM, first compound 0.316 µM
[20] = second compound 0.0949 µM, first compound 1 µM
[21] = second compound 0.3 µM, first compound 0.0316 µM
[22] = second compound 0.3 µM, first compound 0.1 µM
[23] = second compound 0.3 µM, first compound 0.316 µM
[24] = second compound 0.3 µM, first compound 1 µM
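Also: spheroids exposed to compound for seven days before readout.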
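For viability, T/C in this document: 100% = DMSO vehicle control wells.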

CC(C)NCC(C(=O)N1CCN(c2ncnc3c2C(C)CC3O)CC1)c1ccc(Cl)cc1 (centres undefined) + CCn1c(-c2cccnc2C(C)OC)c2c3cc(ccc31)N1CCOC(CC(NC(=O)C(C(C)C)N(C)C(=O)C3(F)CCN(C(=O)C#CC(C)(C)N(C)C)CC3)C(=O)N3CCCC(N3)C(=O)OCC(C)(C)C2)C1
8560 nM: IC50 (second compound 0.03 µM)
inactive: viability, T/C [1] 111% | viability, T/C [2] 101% | viability, T/C [3] 90.9% | viability, T/C [4] 91.6% | viability, T/C (second compound 0.000949 µM, first compound 3.16 µM) 65.4% | viability, T/C (second compound 0.000949 µM, first compound 10 µM) 50.9% | viability, T/C [5] 115% | viability, T/C [6] 117% | viability, T/C [7] 103% | viability, T/C [8] 82.1% | viability, T/C (second compound 0.003 µM, first compound 3.16 µM) 79.6% | viability, T/C (second compound 0.003 µM, first compound 10 µM) 57.2% | viability, T/C [9] 113% | viability, T/C [10] 110% | viability, T/C [11] 102% | viability, T/C [12] 84.8% | viability, T/C (second compound 0.00949 µM, first compound 3.16 µM) 73% | viability, T/C (second compound 0.00949 µM, first compound 10 µM) 48.7% | viability, T/C [13] 112% | viability, T/C [14] 100% | viability, T/C [15] 97.3% | viability, T/C [16] 91.1% | viability, T/C (second compound 0.03 µM, first compound 3.16 µM) 74.4% | viability, T/C (second compound 0.03 µM, first compound 10 µM) 45.6% | viability, T/C [17] 92% | viability, T/C [18] 89.4% | viability, T/C [19] 92.7% | viability, T/C [20] 76.4% | viability, T/C (second compound 0.0949 µM, first compound 3.16 µM) 60.1% | viability, T/C (second compound 0.0949 µM, first compound 10 µM) 39.7% | viability, T/C [21] 75% | viability, T/C [22] 72.7% | viability, T/C [23] 69.5% | viability, T/C [24] 55.9% | viability, T/C (second compound 0.3 µM, first compound 3.16 µM) 53.5% | viability, T/C (second compound 0.3 µM, first compound 10 µM) 37.1%
9660 nM: IC50 (second compound 0.00949 µM)
> 10000 nM: IC50 (second compound 0.000949 µM) | IC50 (second compound 0.003 µM)
5460 nM: IC50 (second compound 0.0949 µM)
3310 nM: IC50 (second compound 0.3 µM)

Nc1ccn(C2OC(CO)C(O)C2(F)F)c(=O)n1 (centres undefined) + CCn1c(-c2cc(N3CCN(C)CC3)cnc2C(C)OC)c2c3cc(ccc31)-c1csc(n1)CC(NC(=O)C1CC1C)C(=O)N1CCCC(N1)C(=O)OCC(C)(C)C2
5.4 nM: IC50 (second compound 0.03 µM)
5.06 nM: IC50 (second compound 0.000949 µM)
active: viability, T/C [1] 4.42% | viability, T/C [2] 3.83% | viability, T/C [3] 4.13% | viability, T/C [4] 5.1% | viability, T/C [5] 4.34% | viability, T/C [6] 4.05% | viability, T/C [7] 5.71% | viability, T/C [8] 4.93% | viability, T/C [9] 4.77% | viability, T/C [10] 4.27% | viability, T/C [11] 4.44% | viability, T/C [12] 4.67% | viability, T/C [13] 4.69% | viability, T/C [14] 3.93% | viability, T/C [15] 5.09% | viability, T/C [16] 5.74% | viability, T/C [17] 4.97% | viability, T/C [18] 4.59% | viability, T/C [19] 5.07% | viability, T/C [20] 4.89% | viability, T/C [21] 5.64% | viability, T/C [22] 3.79% | viability, T/C [23] 4.58% | viability, T/C [24] 4.96%
5.47 nM: IC50 (second compound 0.0949 µM)
6.69 nM: IC50 (second compound 0.3 µM)
4.37 nM: IC50 (second compound 0.003 µM)
4.35 nM: IC50 (second compound 0.00949 µM)
inactive: viability, T/C (second compound 0.000949 µM, first compound 0.00316 µM) 74% | viability, T/C (second compound 0.000949 µM, first compound 0.01 µM) 15.3% | viability, T/C (second compound 0.003 µM, first compound 0.00316 µM) 64.6% | viability, T/C (second compound 0.003 µM, first compound 0.01 µM) 13.1% | viability, T/C (second compound 0.00949 µM, first compound 0.00316 µM) 63.7% | viability, T/C (second compound 0.00949 µM, first compound 0.01 µM) 14.4% | viability, T/C (second compound 0.03 µM, first compound 0.00316 µM) 78% | viability, T/C (second compound 0.03 µM, first compound 0.01 µM) 18% | viability, T/C (second compound 0.0949 µM, first compound 0.00316 µM) 72% | viability, T/C (second compound 0.0949 µM, first compound 0.01 µM) 25.8% | viability, T/C (second compound 0.3 µM, first compound 0.00316 µM) 88.6% | viability, T/C (second compound 0.3 µM, first compound 0.01 µM) 29.3%
